In PMC3790770 (PLoS ONE, 2013):

Target: T1, maltose binding protein (MBP) (Escherichia coli, UniProt P0AEX9)
T1 construct: resulting in an ampicillin-resistant plasmid that expresses cytoplasmic, full-length MBP; made in house
Test: Titration monitored by tryptophan fluorescence peak wavelength
Conditions: sucrose up to ∼[…] without maltose and ∼0.9 M with maltose, 37 °C, pH 7.2
Protocol: Experiments were performed on a Cary 300 Fluorimeter using 200 nM MBP in 100 mM sodium phosphate buffer (pH 7.2) at 37 °C. […] Crowder titrations were conducted with multiple samples, as addition of crowding agent to concentrations reaching 300 g/L was not feasible in the same sample without large volume and MBP concentration changes.
Data were analyzed using two different models: a two-state binding model (Figure 2A), and a three-state competitive binding model (Scheme 1).
Now, [P] represented the sum of the two ligand-free species, i.e., the free protein P and the protein-crowder complex.

SMILES: OC[C@H]1O[C@@](CO)(O[C@H]2O[C@H](CO)[C@@H](O)[C@H](O)[C@H]2O)[C@@H](O)[C@@H]1O [sucrose]
- binding to MBP (sucrose titration): no apparent 1∶1 binding to MBP
